Results reported in patent US11998534B2, “GPX4 inhibitor in combination with anticancer agent for treating proliferative disease” (Eubulus Biotherapeutics Inc., priority 2020, dated 2024).
Read-outs that look alike come from different tables or passages of the source. Peptide text beside a SMILES is read from it. * marks the point of attachment. Cbz = O=C(OCc1ccccc1)*; CH2F = FC*

How the values were obtained:
Type in all cases: cell-based
[1] = tested on: cancerous cell lines (e.g., HT-29, Hub-7, or OVCAR-8); assay: Cell proliferation assay (CELL-TITER GLO cell viability), Table 1; conditions: 24 h incubation, cell line not stated
Protocol: (§1) The activity of a combination of a GPX4 inhibitor (e.g., compound A1, A2, or A3) and a tyrosine kinase inhibitor (e.g., neratinib, regorafenib, or sorafenib) was determined in a cell proliferation assay using cancerous cell lines (e.g., HT-29 (colorectal adenocarcinoma), Hub-7 (hepatocellular carcinoma), or OVCAR-8 (ovarian adenocarcinoma)). Cells of each cell line were seeded in a 96-well tissue culture plate. After incubated overnight, a compound or a combination was added at predetermined concentration(s). After the cells were incubated for 24 h, cell viability was determined using a CELL-TITER GLO® assay. The CELL-TITER GLO® reagent (50 μL) was added to each well and the luminescence was measured by a multimode microplate reader after a brief period of shaking. EC50 values were determined from dose response curves.

Huh-7 cells = assay: Cell viability assay with ferroptosis/apoptosis inhibitor rescue, Huh-7 cells (FIGS. 1-3); conditions: GPX4 inhibitor 100 nM + sorafenib C1 3 μM
Protocol: as §1

HT-29 cells = assay: Cell viability assay with ferroptosis/apoptosis inhibitor rescue, HT-29 cells (FIGS. 4-6); conditions: GPX4 inhibitor 100 nM + sorafenib C1 3 μM
Protocol: as §1

[2] = GPX4 inhibitor alone, read-out: Inhibition of Cell Proliferation, Monotherapy (EC50)
[3] = GPX4 inhibitor in combination with C2 (10 μM), read-out: Inhibition of Cell Proliferation, Combination +C2 (10 μM) (EC50)
[4] = GPX4 inhibitor in combination with C3 (3 μM), read-out: Inhibition of Cell Proliferation, Combination +C3 (3 μM) (EC50)

Row | EC50 [1, 2] [µM] | EC50 [1, 3] [µM] | EC50 [1, 4] [µM] | SMILES | Rescue from cell death induced by GPX4 inhibitor A1, A2, or A3 in combination with sorafenib C1 (Huh-7 cells) | Rescue from cell death induced by GPX4 inhibitor A1, A2, or A3 in combination with sorafenib C1 (HT-29 cells)
1 | 8 | 0.057 | 0.97 | COC(=O)c1ccc(C2c3[nH]c4ccccc4c3C[C@H](C(=O)OC)N2C(=O)CCl)cc1 (stereo partly drawn) [A1, methyl (3R)-2-(2-chloroacetyl)-2,3,4,9-tetrahydro-1-(4-(methoxycarbonyl)phenyl)-1H-pyrido[3,4-b]indole-3-carboxylate] |  | 
2 | 22.5 | 0.097 | 1.3 | C#CC(=O)N1C(c2ccc(C(=O)OC)cc2)c2[nH]c3ccccc3c2C[C@@H]1CO (stereo partly drawn) [A2, methyl 4-((3R)-3-(hydroxymethyl)-2-propioloyl-2,3,4,9-tetrahydro-1H-pyrido[3,4-b]indol-1-yl)benzoate] |  | 
3 | 5.7 | 0.207 | 1.8 | C#CC(=O)N(c1ccc(OC)c(Cl)c1)C(C(=O)NC(C)(C)C)c1ccc(N)cc1 (stereo not shown) [A3, N-(1-(4-aminophenyl)-2-(tert-butylamino)-2-oxoethyl)-N-(3-chloro-4-methoxyphenyl)propiolamide] |  | 
4 |  |  |  | CCOC(=O)c1ccc(NC2CCCCC2)c(N)c1 [Fer-1, ferrostatin-1] | able to rescue | able to rescue
5 |  |  |  | COC(=O)C[C@H](NC(=O)[C@H](C)NC(=O)[C@@H](NC(=O)OCc1ccccc1)C(C)C)C(=O)CF [ZVAD, Z-VAD-FMK] (Cbz-Val-Ala-Asp(OMe)-CH2F) | could not | could not
